Experimental data: patent US20240139280A1, “USE OF HIF-1-ALPHA INHIBITORS IN CANCER IMMUNOTHERAPY” (ONCOC4, INC., priority 2021, published 2024)

Legend:
[1] = Tolerability and LD50 of intravenous echinomycin in mice; details: mouse, in vivo
[2] = tested on: PD-L1 in 4T1, E0771, MC38 tumors; test: Intratumoral PD-L1 immunofluorescence in engrafted 4T1, E0771 and MC38 tumors; format: in vivo, mice; details: LEM 0.25 mg/kg every other day for 5 doses; two days after final dose
[3] = tested on: E0771 tumor; test: E0771 tumor growth in mice (incl. shRNA sublines, cell depletion); format: in vivo
Experimental: FIGS. 3A-D show the therapeutic effects of echinomycin on tumor growth in immunodeficient and immunocompetent mice. FIG. 3A. Experimental design. Three murine tumor lines were tested: 4T1, E0771, or MC38. For each, immunodeficient and immunocompetent mice were inoculated (day 0), and treatment was initiated with control liposomes (vehicle) or echinomycin liposomes (LEM) on day 6, indicated by arrows in FIGS. 3B-3D. The kinetics of tumor growth were compared to deduce the role of adaptive immunity in the therapeutic effects of echinomycin. FIG. 3B. 4T1 cells (1×10^6) were transplanted into mammary fat pad of NSG and BALB/c mice, which received vehicle or echinomycin (0.15 mg/kg) (arrows). Mean tumor volumes±SEM are shown for one of two independent experiments (n=10/group). FIG. 3C. Kinetics of E0771 tumor growth. E0771 cells (0.7×10^6) were transplanted into mammary fat pad of NSG and C57BL/6 mice, which received vehicle or echinomycin (0.25 mg/kg) (arrows). Mean tumor volumes±SEM are shown for one of two independent experiments (n=5/group). FIG. 3D. Kinetics of MC38 tumor growth. MC38 cells (1×10^6) were transplanted subcutaneously into NSG and C57BL/6 mice, which received vehicle or echinomycin (0.15 mg/kg) (blue arrows). Mean tumor volumes±SEM are shown for one of two independent experiments (n=5/group).
FIGS. 4A-D show the effects of pharmacological and/or genetic targeting of HIF-1α on E0771 tumor growth in immunodeficient or immunocompetent mice. FIG. 4A. Experimental design. Three sublines of E0771 were generated by lentiviral transduction: scrambled shRNA (sh^−Scr), or shRNA for the Hif1α (sh^−Hif1α) or Pdl1 (sh^−Pdl1) genes. For each subline, 0.5×10^6 cells were orthotopically transplanted into NSG or C57BL/6 mice (day 0), which received vehicle or echinomycin (0.25 mg/kg) starting day 6. FIG. 4B. Effects of Hif1α or Pdl1 knockdown on E0771 growth among immunodeficient or immunocompetent recipients. FIG. 4C. Effects of vehicle or echinomycin on sh^−Scr, sh^−Hif1α, or sh^−Pdl1 E0771 growth in immunocompetent C57BL/6 recipients. FIG. 4D. Effects of vehicle or echinomycin (arrows) on sh^−Scr, sh^−Hif1α, or sh^−Pdl1 E0771 growth in immunodeficient NSG recipients. Data shown are means+/−SEM (n=5/group) and are representative of 2 experiments.
FIGS. 5A-D show at echinomycin potentiates the therapeutic effect of anti-CTLA-4 antibody. FIG. 5A. Experimental design. In 4T1, E0771, or MC38 syngeneic tumor models, the effects of echinomycin on tumor growth were tested in combination with anti-CTLA-4 therapy (9D9). Tumor growth kinetics in mice receiving vehicle, echinomycin, and anti-CTLA-4 (9D9) monotherapies, or anti-CTLA-4+anti-PD-1 (9D9+RMP1-14) are shown. Starting on day 6 after tumor cell inoculation, mice received vehicle or echinomycin and/or various mAbs. The mean tumor volumes±SEM are shown for each group. FIG. 5B. Effects of 9D9+echinomycin on 4T1 tumor growth. BALB/c mice received vehicle, liposomal echinomycin (LEM, 0.15 mg/kg) (blue arrows), 9D9 (0.2 mg/mouse/injection) (red arrows), or both (n=10/group). Data shown for one of three independent experiments. FIG. 5C. Effects of 9D9+echinomycin on syngeneic E0771 growth. E0771 cells (0.5×10^6) were orthotopically transplanted into the mammary fat pads of C57BL/6 mice. Mice received vehicle or echinomycin (0.25 mg/kg) and/or various mAbs (0.2 mg/mouse/injection) (red arrows). Representative data shown for one of three independent experiments (n=5/group). FIG. 5D. […]

Question: With `CSC1SC[C@H]2C(=O)N(C)[C@@H](C(C)C)C(=O)OC[C@@H](NC(=O)c3cnc4ccccc4n3)C(=O)N[C@@H](C)C(=O)N(C)[C@@H]1C(=O)N(C)[C@@H](C(C)C)C(=O)OC[C@@H](NC(=O)c1cnc3ccccc3n1)C(=O)N[C@@H](C)C(=O)N2C` (stereo in doubt) [echinomycin, N,N′-(2,4,12,15,17,25-hexamethyl-11,24-bis(1-methylethyl)-27-(methylthio)-3,6,10,13,16,19,23,26-octaoxo-9,22-dioxa-28-thia-2,5,12,15,18,25-hexaazabicyclo(12.12.3)nonacosane-7,20-diyl)bis(2-quinoxalinecarboxamide)] as the molecule, how does the LD50 [1] read?
Answer: 0.629 mg/kg

Question: What about the “intratumoral PD-L1 expression (immunofluorescence)” value [2] of the same molecule?
Answer: marked reduction in PD-L1 expression

Question: And the “E0771 tumor growth, combination study” value ([3]; C57BL/6, echinomycin 0.25 mg/kg, mAbs 0.2 mg/mouse/injection, vs vehicle)?
Answer: significant inhibition of tumor growth

Question: What about the “sh-Scr E0771 tumor growth” value ([3]; C57BL/6 compared to NSG recipients, echinomycin 0.25 mg/kg) of the same molecule?
Answer: more effectively inhibited

Question: And the “sh-Pdl1 E0771 tumor growth” value ([3]; C57BL/6 or NSG recipients, echinomycin 0.25 mg/kg)?
Answer: did not further suppress

Question: And the E0771 tumor growth ([3]; immunocompetent C57BL/6, echinomycin 0.25 mg/kg)?
Answer: therapeutic effect on immune competent

Question: And the “sh-Hif1α E0771 tumor growth” value ([3]; regardless of recipient strain (C57BL/6, NSG), echinomycin 0.25 mg/kg)?
Answer: did not inhibit
